Experimental data as given in paper PMC10541198, “Specific quinone reductase 2 inhibitors reduce metabolic burden and reverse Alzheimer’s disease phenotype in mice” (The Journal of Clinical Investigation, 2023).
Values joined by “and” are separate entries in the source; they are usually repeats but may differ in a detail not shown here. Equal values may be shown once.

Tested on: Iba1
Assay: IHC of Iba1 (microglia activation) in 5xFAD brain sections
Assay type: in vivo, mouse
Settings: for Iba1 normalized volume (individual mice): CA1, 5xFAD 1 month; for Figure 9D, IHC signal: individual animals; for Iba1 vs vehicle: cortex, 5xFAD 1 month
Text: Following the behavioral experiments, we assessed brain pathologies associated with AD present in the 5xFAD mice ([37]). Therefore, 5 days following the last behavioral experiment, and 1 month after the start of YB-537 consumption, mice were sacrificed, and coronal brain sections were used for IHC. Since the CA1 region of the hippocampus is affected during AD pathogenesis ([37]), and this brain region is involved in the behavioral paradigms used here, we acquired images of CA1. This was done with an Olympus IX83 confocal microscope using the same settings, antibodies, and exposures in all mice. Images were analyzed using Imaris (Bitplane; see methods). For each mouse, 3 coronal sections were used per antibody. In each section, the same region of CA1 was acquired, using the same image frame size and resolution, at all possible depths of the section — using a Z-stack of the whole section — to allow measurement of the fluorescent antibody marker volume, which was normalized to the brain volume from which it was taken. First, we measured oxidative stress, as indicated by 4-HNE ([38]) (Abcam, ab48506).
Perfused and fixed brain slices were blocked with 10% normal donkey serum (DNS) and 0.2% triton (Sigma-Aldrich) in PBS. Antibodies, including 4-HNE (AbCam, ab48506), Iba1 (AbCam, ab5076), AT-8 (Thermo, MN1020), Amyloid β (AbCam, ab201060), diluted in PBS with 10% DNS, were incubated at 4°C overnight. Secondary antibodies including donkey-anti-goat Alexa Fluor 568 (AbCam, ab175704), donkey-anti-mouse Cy 5 (Jackson Immuno Research, 715-175-151), and donkey-anti-rabbit DyLight 488 (AbCam, ab98488) all diluted 1:500 in PBS with 1% BSA, were applied to the slices at RT for 2 hours the next day. Slices were mounted onto glass slides using DAPI containing Vectashield (H-1200). Images were taken using a confocal microscope (Olympus IX83). Three slices were used per mouse per antibody. Tiling images of the dorsal CA1 and cortex (Bregma: –1.58mm to –2.30mm) were taken using ×20 objective, acquiring a Z-stack of the whole section. Analysis of the images was done blind by an experimenter unaware of the experimental conditions or details, using Imaris (Bitplane) software. A surface reconstruction module was used to extract the data as volumes of the used markers (4-HNE, phospho-tau, amyloid β, GFAP, and Iba1). Marker volume and intensity were normalized to the corresponding brain volume. The normalized value was averaged for each triplicate and presented here. […]
Brains were then briefly removed and placed in chilled, 4% PFA for 48 h, f oll owe d by immersion in 30% sucrose in 0.1 M PBS for a furt her 48 h. Bra i ns wer e t h e n stored at -80°C, until t he y were sliced into 40µm coronal sections usinga Lei ca CM 1950cryostat. Sli ces were then washed x3 in PBS and bl oc ke d for 1 h at RT using 10% normal donkey serum (DNS) and 0.2% triton (Sigma-Aldrich) in PBS. Antibodies, including 4- HNE (1:500, AbCam, ab48506), Iba1 (1:2,000, AbCam, ab5076), GFAP (Abcam, ab53554), phospho- tau (1:1,000, Thermo, MN1020) and amyloid β (1:1,000, AbCam, ab201060) diluted in PBS with 10% DNS were incubated at 4°C overnight. The next day, the slices were washed x3 times in PBS, and secondary antibodies including donkey anti goat A l e x a Fluor 568 (AbCam, ab175704), donkey anti-mouse Cy 5 (Jackson Immuno Research, 715- 175- 151) and donkey anti-rabbit DyLight 488 (AbCam, ab98488) all diluted 1:500 in PBS with 1% BSA, were applied to the slices at RT for 2 h. Following the incubation, the slices were washed x3 times in PBS, mounted onto gl ass slides, were uniformly covered in DAPI containing Vectashield (H-1200) and coverslips were a dde d. […]

SMILES: Cc1ccc(-c2cn3cccc(C)c3n2)cc1S(=O)(=O)N1CCNCC1 [YB-537]
- Iba1 normalized volume (individual mice) (Females): 0.0305 and 0.0266 and 0.0346 and 0.0314 and 0.0200 and 0.0191 and 0.0158
- Iba1 normalized volume (individual mice) (Males): 0.0473 and 0.0384 and 0.0542 and 0.0369 and 0.0352 and 0.0318 and 0.0209 and 0.0414 and 0.0362
- Iba1 normalized volume (individual mice) (Males + Females): 0.0473 and 0.0384 and 0.0542 and 0.0369 and 0.0352 and 0.0314 and 0.0200 and 0.0191 and 0.0158 and 0.0305 and 0.0266 and 0.0346 and 0.0318 and 0.0209 and 0.0414 and 0.0362
- Figure 9D, IHC signal (Cortex): 0.0209 and 0.0186 and 0.0218 and 0.0206 and 0.0305 and 0.0198 and 0.0227
- Figure 9D, IHC signal (Hippocampus): 0.0213 and 0.0206 and 0.0202 and 0.0175 and 0.0174 and 0.0220 and 0.0296 and 0.0197
- Iba1 vs vehicle (females): significantly reduced
- Iba1 vs vehicle (males): insignificantly reduced
- Iba1 vs vehicle (total population): significantly reduced
